Test results as given in ChEMBL document CHEMBL4385643, “Design of a brain-penetrant CDK4/6 inhibitor for glioblastoma” (Bioorg Med Chem Lett, 2019).

Legend:
[1] = molecular target: RAC-beta serine/threonine-protein kinase (Homo sapiens) (UniProt P31751); test: Inhibition of recombinant full length human His-tagged AKT2 expressed in baculovirus expression system at 0.1 uM using serine/threonine-06 peptide as substrate incubated for 60 mins by Z'-LYTE assay relative to control
[2] = molecular target: Tyrosine-protein kinase ABL1 (Homo sapiens) (UniProt P00519); test: Inhibition of recombinant full length human His-tagged ABL1 expressed in baculovirus expression system at 0.1 uM using tyrosine-2 peptide as substrate incubated for 60 mins by Z'-LYTE assay relative to control
[3] = molecular target: Calcium/calmodulin-dependent protein kinase kinase 1 (Homo sapiens) (UniProt Q8N5S9); test: Inhibition of tracer 236 binding to recombinant human GST-tagged CAMKK1 expressed in Escherichia coli expression system at 0.1 uM measured after 60 mins by Lanthascreen assay relative to control
Sequence of Calcium/calmodulin-dependent protein kinase kinase 1 (Homo sapiens) (Q8N5S9 whole entry, looked up, the tested form may be a part): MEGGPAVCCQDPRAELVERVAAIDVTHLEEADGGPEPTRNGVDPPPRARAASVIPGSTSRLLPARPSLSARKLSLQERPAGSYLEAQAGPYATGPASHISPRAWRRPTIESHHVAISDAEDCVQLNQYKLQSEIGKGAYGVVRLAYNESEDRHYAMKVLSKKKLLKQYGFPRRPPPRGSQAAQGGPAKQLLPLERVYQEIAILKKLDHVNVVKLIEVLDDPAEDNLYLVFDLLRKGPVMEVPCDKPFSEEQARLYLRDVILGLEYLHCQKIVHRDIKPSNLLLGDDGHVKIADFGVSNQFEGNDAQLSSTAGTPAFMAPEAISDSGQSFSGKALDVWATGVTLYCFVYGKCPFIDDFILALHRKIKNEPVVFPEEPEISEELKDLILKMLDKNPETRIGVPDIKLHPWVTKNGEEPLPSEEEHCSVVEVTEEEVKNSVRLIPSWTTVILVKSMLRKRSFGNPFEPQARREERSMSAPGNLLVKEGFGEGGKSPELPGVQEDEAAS

[4] = molecular target: Cyclin-C/Cyclin-dependent kinase 19 (Homo sapiens) (UniProt Q9BWU1+P24863); test: Inhibition of tracer 236 binding to recombinant human GST/His-tagged CDK11/Cyclin C catalytic domain (CDK11: 1 to 502, Cyclin C: 1 to 283) expressed in insect cells expression system at 0.1 uM measured after 60 mins by Lanthascreen assay relative to control
[5] = molecular target: CDK8/Cyclin C (Homo sapiens) (UniProt P49336+P24863); test: Inhibition of tracer 236 binding to recombinant full length human His-tagged CDK8/cyclin C expressed in baculovirus expression system at 0.1 uM measured after 60 mins by Lanthascreen assay
[6] = molecular target: CDK9/cyclin T1 (Homo sapiens) (UniProt O60563+P50750); test: Inhibition of recombinant full length human His-tagged CDK9/CyclinT1 expressed in baculovirus expression system at 0.1 uM using CDK7/9tide peptide as substrate incubated for 60 mins by Adapta assay relative to control
[7] = molecular target: Casein kinase I isoform delta (Homo sapiens) (UniProt P48730); test: Inhibition of recombinant full length human GST-tagged CK1delta expressed in baculovirus expression system at 0.1 uM using serine/threonine-11 peptide as substrate incubated for 60 mins by Z'-LYTE assay relative to control
Sequence of Casein kinase I isoform delta (Homo sapiens) (P48730 whole entry, looked up, the tested form may be a part, canonical isoform): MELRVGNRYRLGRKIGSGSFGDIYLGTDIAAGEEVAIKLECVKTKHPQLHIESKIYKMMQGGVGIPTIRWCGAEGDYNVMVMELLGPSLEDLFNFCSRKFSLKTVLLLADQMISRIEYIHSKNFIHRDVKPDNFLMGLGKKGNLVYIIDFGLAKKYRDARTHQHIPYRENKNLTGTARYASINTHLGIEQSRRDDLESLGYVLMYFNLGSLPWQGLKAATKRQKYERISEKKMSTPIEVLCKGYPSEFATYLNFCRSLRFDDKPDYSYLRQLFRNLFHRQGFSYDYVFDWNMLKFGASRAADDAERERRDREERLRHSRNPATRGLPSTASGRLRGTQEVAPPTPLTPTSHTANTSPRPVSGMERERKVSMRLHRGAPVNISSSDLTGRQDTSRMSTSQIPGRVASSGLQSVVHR

[8] = molecular target: Ephrin type-A receptor 1 (Homo sapiens) (UniProt P21709); test: Inhibition of recombinant human GST-tagged EPHA1 (568 to 976 residues) expressed in baculovirus expression system at 0.1 uM using tyrosine-2 peptide as substrate incubated for 60 mins by Z'-LYTE assay relative to control
[9] = molecular target: G protein-coupled receptor kinase 3 (Homo sapiens) (UniProt P35626); test: Inhibition of recombinant full length human GST-tagged GRK3 expressed in baculovirus expression system at 0.1 uM using serine/threonine-16 peptide as substrate incubated for 60 mins by Z'-LYTE assay relative to control
[10] = molecular target: Interleukin-1 receptor-associated kinase 1 (Homo sapiens) (UniProt P51617); test: Inhibition of recombinant human GST-tagged IRAK1 catalytic domain (194 to 712 residues) expressed in baculovirus expression system at 0.1 uM using Histone H3 (1-20) peptide as substrate incubated for 60 mins by Adapta assay relative to control
[11] = molecular target: Maternal embryonic leucine zipper kinase (Homo sapiens) (UniProt Q14680); test: Inhibition of recombinant human GST-tagged MELK catalytic domain (1 to 340 residues) expressed in baculovirus expression system at 0.1 uM using serine/threonine-17 peptide as substrate incubated for 60 mins by Z'-LYTE assay relative to control
[12] = molecular target: Dual specificity mitogen-activated protein kinase kinase 6 (Homo sapiens) (UniProt P52564); test: Inhibition of recombinant full length human His-tagged MKK6 expressed in baculovirus expression system at 0.1 uM using serine/threonine-3 peptide as substrate incubated for 60 mins by Z'-LYTE assay relative to control
[13] = molecular target: Mitogen-activated protein kinase kinase kinase 9 (Homo sapiens) (UniProt P80192); test: Inhibition of recombinant human GST-tagged MLK1 catalytic domain (1 to 500 residues) expressed in baculovirus expression system at 0.1 uM using serine/threonine-7 peptide as substrate incubated for 60 mins by Z'-LYTE assay relative to control
Sequence of Mitogen-activated protein kinase kinase kinase 9 (Homo sapiens) (P80192 whole entry, looked up, the tested form may be a part): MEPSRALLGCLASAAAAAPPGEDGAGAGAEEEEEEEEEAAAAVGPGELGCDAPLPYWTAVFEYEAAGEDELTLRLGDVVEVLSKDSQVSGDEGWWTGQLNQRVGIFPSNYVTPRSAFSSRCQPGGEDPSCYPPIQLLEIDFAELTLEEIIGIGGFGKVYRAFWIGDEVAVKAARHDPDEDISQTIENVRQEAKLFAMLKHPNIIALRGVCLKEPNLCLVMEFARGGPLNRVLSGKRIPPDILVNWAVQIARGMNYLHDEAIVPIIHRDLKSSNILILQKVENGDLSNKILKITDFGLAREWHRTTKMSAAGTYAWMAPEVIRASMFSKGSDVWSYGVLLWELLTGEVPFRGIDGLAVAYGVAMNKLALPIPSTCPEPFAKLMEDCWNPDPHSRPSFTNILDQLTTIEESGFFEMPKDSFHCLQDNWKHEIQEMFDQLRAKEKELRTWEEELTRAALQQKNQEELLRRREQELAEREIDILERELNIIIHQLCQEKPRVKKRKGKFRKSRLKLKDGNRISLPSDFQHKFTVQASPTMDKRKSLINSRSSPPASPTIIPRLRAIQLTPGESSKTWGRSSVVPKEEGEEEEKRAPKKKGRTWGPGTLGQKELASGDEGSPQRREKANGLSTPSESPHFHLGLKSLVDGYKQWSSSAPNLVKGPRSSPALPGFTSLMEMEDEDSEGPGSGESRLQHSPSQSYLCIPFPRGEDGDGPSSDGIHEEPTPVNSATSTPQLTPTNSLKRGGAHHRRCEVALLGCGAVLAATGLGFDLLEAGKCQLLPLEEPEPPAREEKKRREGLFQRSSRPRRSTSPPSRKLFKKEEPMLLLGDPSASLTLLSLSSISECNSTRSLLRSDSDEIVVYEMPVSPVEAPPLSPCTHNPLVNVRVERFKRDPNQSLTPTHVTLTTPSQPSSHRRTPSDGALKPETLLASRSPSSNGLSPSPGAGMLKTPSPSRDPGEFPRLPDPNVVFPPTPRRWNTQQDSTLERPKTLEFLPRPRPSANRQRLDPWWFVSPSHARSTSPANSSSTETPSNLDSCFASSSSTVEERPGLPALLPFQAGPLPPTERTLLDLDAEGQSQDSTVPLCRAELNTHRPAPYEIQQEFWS

[14] = molecular target: Serine/threonine-protein kinase 24 (Homo sapiens) (UniProt Q9Y6E0); test: Inhibition of recombinant full length human GST-tagged MST3 expressed in baculovirus expression system at 0.1 uM using serine/threonine-7 peptide as substrate incubated for 60 mins by Z'-LYTE assay relative to control
Sequence of Serine/threonine-protein kinase 24 (Homo sapiens) (Q9Y6E0 whole entry, looked up): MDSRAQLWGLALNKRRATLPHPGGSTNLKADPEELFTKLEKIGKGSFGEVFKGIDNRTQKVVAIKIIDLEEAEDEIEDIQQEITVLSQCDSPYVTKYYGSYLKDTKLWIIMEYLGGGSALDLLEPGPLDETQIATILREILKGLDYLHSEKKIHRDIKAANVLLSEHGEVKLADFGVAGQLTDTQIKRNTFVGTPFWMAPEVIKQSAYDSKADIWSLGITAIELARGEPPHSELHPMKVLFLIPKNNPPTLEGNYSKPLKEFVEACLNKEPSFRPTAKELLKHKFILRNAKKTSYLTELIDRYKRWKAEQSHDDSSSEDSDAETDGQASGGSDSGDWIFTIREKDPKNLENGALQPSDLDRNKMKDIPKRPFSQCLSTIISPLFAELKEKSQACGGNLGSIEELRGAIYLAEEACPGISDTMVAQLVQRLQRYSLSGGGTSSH

[15] = molecular target: Serine/threonine-protein kinase Nek4 (Homo sapiens) (UniProt P51957); test: Inhibition of recombinant full length human GST-tagged NEK4 expressed in baculovirus expression system at 0.1 uM using serine/threonine-17 peptide as substrate incubated for 60 mins by Z'-LYTE assay relative to control
Sequence of Serine/threonine-protein kinase Nek4 (Homo sapiens) (P51957 whole entry, looked up, the tested form may be a part): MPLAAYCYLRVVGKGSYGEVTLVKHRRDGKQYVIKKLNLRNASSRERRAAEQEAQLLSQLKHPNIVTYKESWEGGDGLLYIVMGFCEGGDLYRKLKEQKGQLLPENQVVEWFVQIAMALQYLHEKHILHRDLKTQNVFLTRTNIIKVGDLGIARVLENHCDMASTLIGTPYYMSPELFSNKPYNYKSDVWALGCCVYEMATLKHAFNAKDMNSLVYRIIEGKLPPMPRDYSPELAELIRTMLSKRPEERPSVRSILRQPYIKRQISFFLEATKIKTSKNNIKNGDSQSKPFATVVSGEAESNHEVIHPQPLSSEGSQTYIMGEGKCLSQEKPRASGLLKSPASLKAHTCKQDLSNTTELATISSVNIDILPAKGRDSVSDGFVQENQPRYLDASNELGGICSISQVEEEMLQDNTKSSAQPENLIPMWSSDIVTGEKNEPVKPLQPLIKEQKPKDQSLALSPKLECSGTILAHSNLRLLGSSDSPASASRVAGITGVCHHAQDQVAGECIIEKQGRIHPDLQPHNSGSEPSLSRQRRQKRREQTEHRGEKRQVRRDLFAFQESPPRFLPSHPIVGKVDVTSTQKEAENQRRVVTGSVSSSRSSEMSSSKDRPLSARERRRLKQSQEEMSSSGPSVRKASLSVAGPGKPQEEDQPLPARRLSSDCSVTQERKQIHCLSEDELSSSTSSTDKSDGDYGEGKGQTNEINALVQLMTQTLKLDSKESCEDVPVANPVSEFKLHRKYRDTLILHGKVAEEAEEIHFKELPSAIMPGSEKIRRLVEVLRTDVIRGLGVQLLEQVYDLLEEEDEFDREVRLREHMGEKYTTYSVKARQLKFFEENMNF

[16] = molecular target: PAS domain-containing serine/threonine-protein kinase (Homo sapiens) (UniProt Q96RG2); test: Inhibition of recombinant human GST-tagged PASK catalytic domain (879 to 1323 residues) expressed in baculovirus expression system at 0.1 uM using serine/threonine-7 peptide as substrate incubated for 60 mins by Z'-LYTE assay relative to control
[17] = molecular target: Serine/threonine-protein kinase pim-1 (Homo sapiens) (UniProt P11309); test: Inhibition of recombinant full length human His-tagged PIM1 expressed in baculovirus expression system at 0.1 uM using serine/threonine-7 peptide as substrate incubated for 60 mins by Z'-LYTE assay relative to control
Sequence of Serine/threonine-protein kinase pim-1 (Homo sapiens) (P11309 whole entry, looked up): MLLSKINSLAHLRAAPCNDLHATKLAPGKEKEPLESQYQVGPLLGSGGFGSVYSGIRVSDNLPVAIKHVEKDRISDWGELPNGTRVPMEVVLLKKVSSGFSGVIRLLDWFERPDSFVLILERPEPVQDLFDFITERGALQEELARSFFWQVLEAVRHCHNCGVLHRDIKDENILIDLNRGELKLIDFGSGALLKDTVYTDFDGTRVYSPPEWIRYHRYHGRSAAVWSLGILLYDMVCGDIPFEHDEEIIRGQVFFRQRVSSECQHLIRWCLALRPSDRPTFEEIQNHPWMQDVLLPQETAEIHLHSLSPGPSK

[18] = molecular target: Serine/threonine-protein kinase N1 (Homo sapiens) (UniProt Q16512); test: Inhibition of recombinant full length human GST-tagged PRK1 expressed in baculovirus expression system at 0.1 uM using serine/threonine-7 peptide as substrate incubated for 60 mins by Z'-LYTE assay relative to control
[19] = molecular target: Receptor-interacting serine/threonine-protein kinase 2 (Homo sapiens) (UniProt O43353); test: Inhibition of tracer 178 binding to recombinant human His-tagged RIPK2 catalytic domain (1 to 299 residues) expressed in baculovirus expression system at 0.1 uM measured after 60 mins by Lanthascreen assay relative to control
Sequence of Receptor-interacting serine/threonine-protein kinase 2 (Homo sapiens) (O43353 whole entry, the tested form may be a part): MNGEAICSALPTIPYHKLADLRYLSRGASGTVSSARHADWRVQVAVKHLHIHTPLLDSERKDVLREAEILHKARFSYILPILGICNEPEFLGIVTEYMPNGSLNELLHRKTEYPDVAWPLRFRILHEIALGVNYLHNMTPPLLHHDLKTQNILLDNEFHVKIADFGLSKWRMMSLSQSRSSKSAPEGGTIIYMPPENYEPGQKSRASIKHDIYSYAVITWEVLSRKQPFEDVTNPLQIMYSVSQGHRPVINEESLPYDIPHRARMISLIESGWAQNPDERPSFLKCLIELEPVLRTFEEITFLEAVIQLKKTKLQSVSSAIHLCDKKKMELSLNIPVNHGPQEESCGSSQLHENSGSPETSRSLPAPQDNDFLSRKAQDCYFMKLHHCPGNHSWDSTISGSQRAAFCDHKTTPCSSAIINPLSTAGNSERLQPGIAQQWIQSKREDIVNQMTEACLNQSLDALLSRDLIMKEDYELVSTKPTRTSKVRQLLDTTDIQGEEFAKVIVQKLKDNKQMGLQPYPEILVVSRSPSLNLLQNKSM

[20] = molecular target: Tyrosine-protein kinase receptor TYRO3 (Homo sapiens) (UniProt Q06418); test: Inhibition of recombinant human GST-tagged RSE catalytic domain (451 to 890 residues) expressed in baculovirus expression system at 0.1 uM using tyrosine-2 peptide as substrate incubated for 60 mins by Z'-LYTE assay relative to control
Sequence of Tyrosine-protein kinase receptor TYRO3 (Homo sapiens) (Q06418 whole entry, the tested form may be a part): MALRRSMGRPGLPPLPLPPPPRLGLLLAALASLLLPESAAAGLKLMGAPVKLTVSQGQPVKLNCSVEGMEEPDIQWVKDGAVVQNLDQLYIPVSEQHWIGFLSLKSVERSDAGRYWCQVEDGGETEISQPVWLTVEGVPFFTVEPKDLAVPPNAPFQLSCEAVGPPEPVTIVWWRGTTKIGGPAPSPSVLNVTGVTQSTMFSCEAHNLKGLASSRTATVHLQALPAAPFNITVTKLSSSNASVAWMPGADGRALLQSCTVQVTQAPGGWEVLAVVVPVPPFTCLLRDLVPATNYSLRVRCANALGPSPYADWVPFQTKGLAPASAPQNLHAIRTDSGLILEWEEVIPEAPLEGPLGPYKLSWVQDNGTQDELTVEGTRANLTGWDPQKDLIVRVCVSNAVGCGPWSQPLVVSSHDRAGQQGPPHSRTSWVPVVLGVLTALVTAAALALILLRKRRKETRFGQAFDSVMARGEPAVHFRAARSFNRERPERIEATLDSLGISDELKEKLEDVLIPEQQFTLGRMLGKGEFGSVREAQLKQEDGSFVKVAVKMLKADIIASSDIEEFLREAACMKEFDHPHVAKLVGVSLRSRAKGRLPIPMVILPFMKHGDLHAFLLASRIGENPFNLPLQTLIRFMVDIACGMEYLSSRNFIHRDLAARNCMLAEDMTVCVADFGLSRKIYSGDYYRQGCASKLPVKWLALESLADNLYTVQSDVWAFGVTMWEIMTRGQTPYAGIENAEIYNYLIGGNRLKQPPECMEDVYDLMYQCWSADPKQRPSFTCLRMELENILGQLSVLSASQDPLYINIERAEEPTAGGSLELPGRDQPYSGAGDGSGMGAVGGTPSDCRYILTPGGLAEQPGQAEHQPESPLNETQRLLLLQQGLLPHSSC

[21] = molecular target: Tyrosine-protein kinase SYK (Homo sapiens) (UniProt P43405); test: Inhibition of recombinant full length human GST-tagged SYK expressed in baculovirus expression system at 0.1 uM using tyrosine-2 peptide as substrate incubated for 60 mins by Z'-LYTE assay relative to control
[22] = molecular target: Mitogen-activated protein kinase kinase kinase 8 (Homo sapiens) (UniProt P41279); test: Inhibition of recombinant human GST-tagged TPL2 catalytic domain (30 to 397 residues) expressed in baculovirus expression system at 0.1 uM using serine/threonine-3 peptide as substrate incubated for 60 mins by Z'-LYTE assay relative to control
[23] = molecular target: Mitogen-activated protein kinase kinase kinase 20 (Homo sapiens) (UniProt Q9NYL2); test: Inhibition of recombinant full length human GST-tagged ZAK expressed in baculovirus expression system at 0.1 uM using CREBtide as substrate 60 mins by Lanthascreen assay relative to control

Row | Structure (SMILES) | inhibition [1] | inhibition [2] | inhibition [3] | inhibition [4] | inhibition [5] | inhibition [6] | inhibition [7] | inhibition [8] | inhibition [9] | inhibition [10] | inhibition [11] | inhibition [12] | inhibition [13] | inhibition [14] | inhibition [15] | inhibition [16] | inhibition [17] | inhibition [18] | inhibition [19] | inhibition [20] | also measured
1 | CCN1CC2(C1)CN(c1ccc(Nc3ncc(F)c(-c4cnn5c4[C@H](C)CCCC5)n3)nc1)C2 | 9.5% | 3.5% | 12% | 81% | 75% | 59.5% | 5% | 9.5% | 0% | 48.5% | 44% | 0% | 47% | 18.5% | 3.5% | 14.5% | 11.5% | 8.5% | 2% | 31% | inhibition [21]: -3%; inhibition [22]: 26%; inhibition [23]: 5%
2 | CCN1CCN(Cc2ccc(Nc3ncc(F)c(-c4cc(F)c5nc(C)n(C(C)C)c5c4)n3)nc2)CC1 [ABEMACICLIB] | 3% | 1.5% | 12.6% | 19% | 24.2% | 92.5% | 10.5% | 8% | 0.5% | 99.8% | 12.5% | 14.3% | 11.5% | 17% | 42.5% | 73% | 95% | 7% | 1.1% | 17% | inhibition [21]: 6%; inhibition [22]: 11%; inhibition [23]: 1.9%
